The text below walks through data of patent US9234025B2, “Extracellular allosteric inhibitor binding domain from a tyrosine kinase receptor” (SANOFI, priority 2009, dated 2016).

One experiment deals with PANC02 cells. The experiment in a line: PANC02 proliferation. The format is cell-based. The following applies: 100 nM SSR; 100 ng/ml FGF7 with or without VEGF; FGFR2-IIIb. On the procedure:
Cell proliferation was analysed on exponentially growing cells that were starved for 16 hours in 100 μl RPMI 1640 (Invitrogen, 32404-014) with 0.2% FBS (Hyclone, SH30070.03), 2 mM glutamine, MEM non-essential amino-acid 1× (Gibco, 11140-035), MEM sodium pyruvate 1× (Gibco, 11360-039) and seeded at 4,000 cells/well in 96-well microplates. After exposure to mitogens and/or SSR for 72 hours, cell proliferation was assessed with the use of the CellTiter 96 AQueous One Solution Cell Proliferation Assay (Promega, Madison, Wis., USA) according to manufacturer's instructions. Cell migration was assessed by a modified Boyden chamber assay, by using 24-well inserts containing 8 μm pore size transwell permeable supports with a polycarbonate membrane (Costar, Corning Inc.). Exponentially growing cells were starved in 0.2% FBS containing medium for 16 hours and resuspended at 5×10^5 cells/ml in the same low serum medium. 100 μl of the cell suspension were seeded in the upper chamber, while chemoattractants and/or SSR were placed in the lower chamber. 10% FBS containing medium was used a positive control. After 6 hours incubation at 37° C., cells on the upper side of the membrane were scraped using a cotton swab, while migrated cells on the lower surface were fixed with 4% formaldehyde and nuclei stained with DAPI for quantification.

The next experiment concerns the target FGF2 (Homo sapiens, UniProt P09038). The experiment in a line: ITC or STD-NMR, FGF2. The class given is binding. Set-up: FGF2 (amino acids 9-155); made in house. On the procedure: The extracellular domain (ECD; amino acids: 39-358) of the human FGFR1 gene (P11362) was PCR amplified and cloned into E. coli vector pETTEV (with a N-terminal His-tag followed by a TEV protease cleavage site), using NdeI and BamHI restriction sites. For protein production, the resulting plasmid (pET FGFR1 D1D2D3) was transformed into E. coli BL21(DE3) (Novagene). Cells were grown at 37° C. until the OD600 reached 0.6 and recombinant protein production was induced by adding 1 mM IPTG (isopropyl-b-D-thiogalactopyranoside). After 4 hours induction, cells were harvested and stored at −80° C. until usage. The cell pellet (1 L culture) was thawed and resuspended in 50 ml buffer 1 (20 mM Tris/HCl, pH 7.5, 200 mM NaCl) containing lysozyme (2 mg), and 40 U benzonase (Merck). […] Complex formation was analyzed by size exclusion chromatography and subsequent analysis on SDS-PAGE.
All STD- and 1D-NMR experiments were carried out on a BRUKER three-channel DRX600 and on a BRUKER four-channel DRX800 spectrometer at the standard temperature of 298 K and were referenced to the internal standard 3-Trimethyl-2,2,3,3-tetradeuteropropionate-sodium salt (TSP). […] For protein ligand 1D STD NMR measurements spectra were recorded with 1 mM ligand SSR128129E (100 mM DMSO stock solution) and […] protein with weak 2s RF irradiation on separated protein methyl resonances. […]

The structures appear in SMILES notation.

Sequence of FGF2 (P09038 142-288): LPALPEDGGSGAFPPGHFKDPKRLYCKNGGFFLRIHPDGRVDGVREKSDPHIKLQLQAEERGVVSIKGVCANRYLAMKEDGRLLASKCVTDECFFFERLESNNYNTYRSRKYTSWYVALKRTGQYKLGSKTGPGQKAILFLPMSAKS

With `COc1c(C)c(C(=O)c2ccc(N)c(C(=O)[O-])c2)n2ccccc12.[Na+]` [SSR], in the experiment with PANC02 cells, the “FGF7-induced PANC02 proliferation” value is given as “blocked”. For the same molecule, the “binding to FGF2” value at FGF2 is listed as “failed to bind”.
